Assay results from patent publication US6413761B2, “Decaprenyl diphosphate synthetase gene” (Toyota Jidosha Kabushiki Kaisha, priority 1997, dated 2002).

Test system: DPP synthetase
Assay: Substrate specificity of the DPP synthetase on various allylic primers ([14C]IPP incorporation)
Assay type: biochemical, Paracoccus denitrificans
Conditions: for Enzyme Activity: allylic primer 25 μM, [14C]IPP 125 μM, 37° C., 1 hour; for Activity of the DPP synthetase with the allylic substrate (in words): substance used as allylic primer substrate
Protocol: A 200 μl reaction solution shown below was prepared using an appropriate amount of the crude enzyme extract, various allylic primers and [^1-14C]IPP (54 or 57 Ci/mol; Amersham).
The solution was incubated at 37° C. for 1 hour to allow an enzyme reaction. Then, 200 μl of saturated aqueous NaCl solution and 1 ml of n-BuOH saturated with saturated aqueous NaCl solution were added thereto and agitated well. The resultant solution was centrifuged to extract the reaction products. 200 μl of the BuOH layer was collected, and 3 ml of Clear Sol was added thereto. Then, the enzyme activity was determined by measuring the radioactivity in the BuOH extract with a liquid scintillation counter. The enzyme activity was expressed in unit, one unit being the amount of IPP (nmol) taken into the reaction products per 1 minute.
The substrate specificity of this DPP synthetase has been examined on various allyl primers. The unit of enzyme activity is as defined above.

Row | SMILES | Enzyme Activity (+Triton X-100 (0.5%)) | Activity of the DPP synthetase with the allylic substrate (in words) | Enzyme Activity (−Triton X-100)
1 | CC(C)=CCC/C(C)=C/COP(=O)(O)OP(=O)(O)O [GPP, geranyl diphosphate] | 19.8 ×10^−3 unit | slight activity | 1.78 ×10^−3 unit
2 | CC(C)=CCC/C(C)=C/CC/C(C)=C/CC/C(C)=C/COP(=O)(O)OP(=O)(O)O [EEE-GGPP, EEE-geranylgeranyl diphosphate] | 35.33 ×10^−3 unit | strong activity | 3.22 ×10^−3 unit
3 | CC(C)=CCC/C(C)=C/CC/C(C)=C/CC/C(C)=C\COP(=O)(O)OP(=O)(O)O [ZEE-GGPP, ZEE-geranylgeranyl diphosphate] | 3.68 ×10^−3 unit | little activity | 2.47 ×10^−3 unit
